Entries after “also recorded” stand apart in the source; their conditions may differ. Where a SMILES comes first, the peptide text is derived from it. [ ]: non-standard residue; d: D form. The star is where a group is joined. Boc = CC(C)(C)OC(=O)*; OtBu = CC(C)(C)O*; tBu = CC(C)(C)*
What was measured:
[1] = system: apoE null mice; assay: Atherosclerosis in apoE null mice fed peptide in chow for 15 weeks; format: in vivo; conditions: female apoE null mice, 200 μg/gm chow
Description: The aortic root (aortic sinus) lesion score was determined in the apoE null mice described in FIG. 13. The number of mice in each group is shown (n=) at the bottom of the figure and a representative section for each group is shown at the top of the figure.
The percent aortic surface containing atherosclerotic lesions was determined in en face preparations in the apoE null mice described in FIG. 13. The number of mice in each group is shown (n=) at the bottom of the left panel and a representative aorta for mice fed chow alone or chow supplemented with. SEQ ID NO:4 is shown in the right panel.
(§1) Female apoE null mice at age 8 weeks were given no additions to their diet (Chow) or received 200 μg/gm chow of SEQ ID NO:3 (+254) or 200 μg/gm chow of SEQ ID NO: 4 (+258), both synthesized from all D-amino acids. After 15 weeks the mice were bled and their plasma fractionated by FPLC and their HDL (mHDL) tested in a human artery wall cell coculture. A standard human LDL (at 100 μg/mL of LDL-cholesterol) was added alone (LDL) or not added (no addition) or was added with 50 μg/mL of normal human HDL (hHDL) or 50 μg/mL of mouse HDL (mHDL) to human artery wall cocultures and the resulting monocyte chemotactic activity was determined and plotted on the Y-axis.

[2] = system: LDL-induced monocyte chemotactic activity in human artery wall cocultures; assay: Monocyte chemotactic activity in human artery wall cell coculture with HDL of peptide-fed apoE null mice; format: in vivo; conditions: female apoE null mice, 200 μg/gm chow, 15 weeks, 50 μg/mL mouse HDL, FIG. 13
From the text: Lipoproteins, human artery wall cocultures, and monocytes can be prepared and monocyte chemotactic activity (MCA) determined as previously described (Van Lenten et al. (2002) Circulation, 106: 1127-1132). Induction of MCA by a standard control LDL can be determined in the absence or presence of the subject's HDL. Values in the absence of HDL are typically normalized to 1.0. Values greater than 1.0 after the addition of HDL indicate pro-inflammatory HDL; values less than 1.0 indicate anti-inflammatory HDL.
as §1

[3] = Interaction of peptide with DMPC in an aqueous environment (dialysis, negative-stain electron micrograph); format: physicochemical; conditions: for appearance of solution after dialysis (deoxycholate removed): DMPC: peptide 1:10 wt:wt in PBS; for Bilayer dimension of stacked bilayers / Spacing between bilayers in the stack / Vesicular structures, size: DMPC: peptide 1:10 wt:wt, aqueous environment
Description: FIG. 4 SEQ ID NO:4 forms 7.5 nm particles when mixed with DMPC in an aqueous environment. To 1 mg/ml of DMPC suspension in phosphate buffered saline (PBS) was added 10% deoxycholate until the DMPC was dissolved. SEQ ID NO: 4 or SEQ ID NO:3 were added (DMPC: peptide; 1:10; wt:wt) and the reaction mixture dialyzed. […] The figure is an electron micrograph prepared with negative staining and at 147,420× magnification. The arrows indicate SEQ ID NO: 4 particles measuring 7.5 nm (they appear as small white particles).
To 1 mg/ml of DMPC suspension in phosphate buffered saline (PBS) was added 10% deoxycholate until the DMPC was dissolved. Peptides, SEQ ID NO:4 or SEQ ID NO:3, were added (DMPC: peptide; 1:10; wt:wt) and the reaction mixture dialyzed.

[4] = Solubility of peptides in ethyl acetate; format: physicochemical; conditions: 10 mg/mL added, room temperature 30 minutes, FIG. 3
Description: To evaluate solubility in ethyl acetate, each peptide was weighed and added to a centrifuge tube and ethyl acetate (HPLC grade; residue after evaporation <0.0001%) was added to give a concentration of 10 mg/mL. The tubes were sealed, vortexed and kept at room temperature for 30 minutes with vortexing every 10 minutes. The tubes were then centrifuged for 5 minutes at 10,000 rpm and the supernatant was removed to a previously weighed tube. The ethyl acetate was evaporated under argon and the tubes weighed to determine the amount of peptide that had been contained in the supernatant. The percent of the originally added peptide that was dissolved in the supernatant is shown on the Y-axis. he data are mean±S.D. Control represents sham treated tubes; SEQ ID NO:3 and SEQ ID NO:4 were both synthesized from all D-amino acids. The sequence Boc-Phe-Arg-Glu-Leu-OtBu (SEQ ID NO:5, SEQ ID NO:250 in copending application U.S. Ser. No. 10/649,378) was synthesized from all L-amino acids.

[5] = Solubility in aqueous buffer at pH 7.0; format: physicochemical; conditions: pH 7.0, data not shown
[6] = Interaction of peptide with DMPC in an aqueous environment (dialysis, negative-stain electron micrograph); format: physicochemical; conditions: DMPC: peptide 1:10 wt:wt
[7] = system: apoE null mice; assay: Atherosclerosis in apoE null mice fed SEQ ID NO:5 in chow for 12 weeks; format: in vivo; conditions: 200 μg/gm chow, p=0.012, FIG. 16

| appearance of solution after dialysis (deoxycholate removed) [3] | formation of 7.5 nm particles, stacked lipid-peptide bilayers, 38 nm vesicular structures ([3]; conditions of FIG. 4, data not shown) | solubility in ethyl acetate [4] | solubility in aqueous buffer at pH 7.0 [5] | diameter of particles formed with DMPC (Size "Nascent HDL Particles") ([6]; listed as SEQ ID NO: 4) | diameter of particles formed with DMPC (Size "Nascent HDL Particles") ([6]; listed as SEQ ID NO: 6) | Bilayer dimension of stacked bilayers [3] | Spacing between bilayers in the stack [3] | Vesicular structures, size [3] | Vesicular structures, size ([3]; listed as SEQ ID NO: 4) | Bilayer dimension of stacked bilayers ([3]; listed as SEQ ID NO: 6) | Spacing between bilayers in the stack ([3]; listed as SEQ ID NO: 6) | Vesicular structures, size ([3]; listed as SEQ ID NO: 6) | SMILES | aortic root (aortic sinus) atherosclerosis, lesion score ([1]; FIG. 14) | aortic atherosclerosis in en face preparations, percent aortic surface containing lesions ([1]; FIG. 15) | HDL rendered anti-inflammatory (monocyte chemotactic activity) [2] | aortic root (aortic sinus) atherosclerosis, lesion score ([1]; FIG. 14, listed as SEQ ID NO: 4) | aortic atherosclerosis in en face preparations, percent aortic surface containing lesions ([1]; FIG. 15, listed as SEQ ID NO: 4) | HDL rendered anti-inflammatory (monocyte chemotactic activity) ([2]; listed as SEQ ID NO: 4) | % Aortic Surface Area with Lesions in en face preparations [7] |
| --- | --- | --- | --- | --- | --- | --- | --- | --- | --- | --- | --- | --- | --- | --- | --- | --- | --- | --- | --- | --- |
| turbid | did not form | poorly soluble |  |  |  |  |  |  |  |  |  |  | CC(C)(C)OC[C@@H](NC(=O)[C@@H](CCCNC(=N)N)NC(=O)[C@@H](CCC(=O)O)NC(=O)[C@@H](CCCCNC(=O)OC(C)(C)C)NC(=O)OC(C)(C)C)C(=O)OC(C)(C)C [SEQ ID NO:3, Boc-Lys(εBoc)-Glu-Arg-Ser(tBu)-OtBu] (Boc-[dK](Boc)[dE][dR][dS](tBu)-OtBu) | not | not | not |  |  |  |  |
|  |  | very soluble |  |  |  |  |  |  |  |  |  |  | CC(C)C[C@H](NC(=O)[C@H](CCC(=O)O)NC(=O)[C@H](CCCNC(=N)N)NC(=O)[C@H](Cc1ccccc1)NC(=O)OC(C)(C)C)C(=O)OC(C)(C)C [SEQ ID NO:5, Boc-Phe-Arg-Glu-Leu-OtBu] (Boc-FREL-OtBu) |  |  |  |  |  |  | significantly decreases atherosclerosis |

| SMILES | appearance of solution after dialysis (deoxycholate removed) [3] | formation of 7.5 nm particles, stacked lipid-peptide bilayers, 38 nm vesicular structures ([3]; conditions of FIG. 4, data not shown) | solubility in ethyl acetate [4] | solubility in aqueous buffer at pH 7.0 [5] | diameter of particles formed with DMPC (Size "Nascent HDL Particles") ([6]; listed as SEQ ID NO: 4) | diameter of particles formed with DMPC (Size "Nascent HDL Particles") ([6]; listed as SEQ ID NO: 6) | Bilayer dimension of stacked bilayers [3] | Spacing between bilayers in the stack [3] | Vesicular structures, size [3] | Vesicular structures, size ([3]; listed as SEQ ID NO: 4) | Bilayer dimension of stacked bilayers ([3]; listed as SEQ ID NO: 6) | Spacing between bilayers in the stack ([3]; listed as SEQ ID NO: 6) | Vesicular structures, size ([3]; listed as SEQ ID NO: 6) | aortic root (aortic sinus) atherosclerosis, lesion score ([1]; FIG. 14) | aortic atherosclerosis in en face preparations, percent aortic surface containing lesions ([1]; FIG. 15) | HDL rendered anti-inflammatory (monocyte chemotactic activity) [2] | aortic root (aortic sinus) atherosclerosis, lesion score ([1]; FIG. 14, listed as SEQ ID NO: 4) | aortic atherosclerosis in en face preparations, percent aortic surface containing lesions ([1]; FIG. 15, listed as SEQ ID NO: 4) | HDL rendered anti-inflammatory (monocyte chemotactic activity) ([2]; listed as SEQ ID NO: 4) | % Aortic Surface Area with Lesions in en face preparations [7] |
| --- | --- | --- | --- | --- | --- | --- | --- | --- | --- | --- | --- | --- | --- | --- | --- | --- | --- | --- | --- | --- |
| CC(C)(C)OC[C@@H](NC(=O)[C@@H](CCC(=O)O)NC(=O)[C@@H](CCCNC(=N)N)NC(=O)[C@@H](CCCCNC(=O)OC(C)(C)C)NC(=O)OC(C)(C)C)C(=O)OC(C)(C)C [SEQ ID NO:4, Boc-Lys(εBoc)-Arg-Glu-Ser(tBu)-OtBu] (Boc-[dK](Boc)[dR][dE][dS](tBu)-OtBu) | remained clear |  | very soluble; also recorded: highly soluble | soluble | approximately 7.5 nm | 7.5 nm | 3.4 to 4.1 nm | approximately 2 nm | approximately 38 nm | approximately 38 nm | 3.4-4.1 nm | 2.0 nm | 38 nm | significantly decreases | significantly decreases | renders apoE null HDL anti-inflammatory | significantly reduced | significantly decreased | rendered anti-inflammatory |  |

— US20060173067A1, “Small molecules for the treatment of atherosclerosis” (The Regents of the University of California, priority 2004, published 2006)
